# Test results taken from publication PMC6378217, “The lysyl oxidase like 2/3 enzymatic inhibitor, PXS‐5153A, reduces crosslinks and ameliorates fibrosis” (Journal of Cellular and Molecular Medicine, 2018).
# Experiments:
# [1] = molecular target: T1, Recombinant human LOXL4 (Homo sapiens, UniProt Q96JB6); test: Amplex-Red fluorometric enzymatic activity assay, recombinant human LOXL4; format: biochemical; details: 30 minute pre-incubation; average of at least three experiments
# T1 construct: obtained from Dr. Fernando Rodríguez Pascual, university of Madrid, Spain (academic provider, not a vendor)
# Experimental: (§1) The measurement of the enzymatic activity of all lysyl oxidase family members was based on the detection of hydrogen peroxide with an Amplex‐Red oxidation assay, as described in Zhou et al26 Recombinant human semicarbazide sensitive amine oxidase (SSAO/VAP1), diamine oxidase (DAO) and monoamine oxidases A and B (MAO‐A and MAO‐B) assays were performed as previously described.27 For detailed enzymatic procedures, see supporting information.
# (§2) The measurement of the enzymatic activity of all lysyl oxidase family members was based on the detection of hydrogen peroxide with an Amplex-Red oxidation assay, as described in Zhou et al.[1]; miniaturised in 384 well format, with the appropriate combination of substrate and assay buffer for each individual enzyme. After a 30 minute pre-incubation of the enzyme at 37 °C with the test compound (or with different incubation times for the time-dependency assay), one volume of reaction mixture containing 120 μM Amplex Red (AR) (Life Technologies), 1.5 U/mL horseradish peroxidase (HRP) (Sigma-Aldrich) and the specific substrate was added to each sample. The relative fluorescence units (RFU) were then measured every 2.5 minutes for 30 minutes at 37°C, excitation 565 nm and emission 590, on a BMG Clariostar Microplate Reader. […]
# [2] = tested on: LOXL2; test: LOXL2 enzymatic activity across all mammalian species tested; format: biochemical
# Experimental: as §1, §2
# [3] = molecular target: T2, LOXL2 (Homo sapiens, UniProt Q9Y4K0); test: Substrate competition (putrescine), LOXL2; format: biochemical; details: increasing concentrations of the substrate
# T2 sequence (Q9Y4K0 26-774): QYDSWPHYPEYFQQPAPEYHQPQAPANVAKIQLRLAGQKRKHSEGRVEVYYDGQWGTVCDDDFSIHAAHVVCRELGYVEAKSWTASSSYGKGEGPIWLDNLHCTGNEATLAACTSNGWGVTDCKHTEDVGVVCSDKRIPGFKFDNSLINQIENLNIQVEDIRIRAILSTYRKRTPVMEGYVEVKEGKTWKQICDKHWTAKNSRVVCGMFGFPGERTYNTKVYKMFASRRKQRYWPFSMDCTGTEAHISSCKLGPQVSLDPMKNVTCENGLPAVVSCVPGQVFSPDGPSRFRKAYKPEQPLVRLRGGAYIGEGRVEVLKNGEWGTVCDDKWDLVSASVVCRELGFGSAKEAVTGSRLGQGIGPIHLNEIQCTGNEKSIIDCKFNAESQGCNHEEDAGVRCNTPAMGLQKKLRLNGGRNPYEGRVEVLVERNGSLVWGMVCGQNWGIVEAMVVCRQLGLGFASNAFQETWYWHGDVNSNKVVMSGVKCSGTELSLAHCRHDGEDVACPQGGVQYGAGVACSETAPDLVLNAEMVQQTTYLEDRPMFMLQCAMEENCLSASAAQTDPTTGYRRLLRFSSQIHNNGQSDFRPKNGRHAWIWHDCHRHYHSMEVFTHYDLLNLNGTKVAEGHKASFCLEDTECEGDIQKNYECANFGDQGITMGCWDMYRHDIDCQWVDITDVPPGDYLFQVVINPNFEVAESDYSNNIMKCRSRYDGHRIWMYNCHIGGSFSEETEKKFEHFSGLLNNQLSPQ
# Experimental: The measurement of the enzymatic activity of all lysyl oxidase family members was based on the detection of hydrogen peroxide with an Amplex-Red oxidation assay, as described in Zhou et al.[1]; miniaturised in 384 well format, with the appropriate combination of substrate and assay buffer for each individual enzyme. After a 30 minute pre-incubation of the enzyme at 37 °C with the test compound (or with different incubation times for the time-dependency assay), one volume of reaction mixture containing 120 μM Amplex Red (AR) (Life Technologies), 1.5 U/mL horseradish peroxidase (HRP) (Sigma-Aldrich) and the specific substrate was added to each sample. The relative fluorescence units (RFU) were then measured every 2.5 minutes for 30 minutes at 37°C, excitation 565 nm and emission 590, on a BMG Clariostar Microplate Reader. All the substrates were used at concentrations corresponding to their Km towards the corresponding enzyme, or with a range of different concentrations for the substrate competition experiments.
# The measurement of substrate competition was based on the release of hydrogen peroxide as previously described. The target enzyme was incubated with the inhibitor, and differing concentrations of the substrate (putrescine) in reaction mixture and measured.
# [4] = molecular target: Histamine H1 (Homo sapiens, UniProt P35367); test: Eurofins Hit Profiling Screen; format: binding; details: 10 μmol/L
# [5] = tested on: Nicotinic Acetylcholine; test: Eurofins Hit Profiling Screen; format: binding; details: 10 μmol/L
# [6] = molecular target: Nicotinic Acetylcholine α1, Bungarotoxin (Homo sapiens, UniProt P02708+P07510+Q07001); test: Eurofins Hit Profiling Screen; format: binding; details: 10 μmol/L
# [7] = molecular target: Opiate μ (OP3, MOP) (Homo sapiens, UniProt P35372); test: Eurofins Hit Profiling Screen; format: binding; details: 10 μmol/L
# [8] = molecular target: Sigma σ1 (Homo sapiens, UniProt Q99720); test: Eurofins Hit Profiling Screen; format: binding; details: 10 μmol/L
# [9] = molecular target: Transporter, Norepinephrine (NET) (Homo sapiens, UniProt P23975); test: Eurofins Hit Profiling Screen; format: binding; details: 10 μmol/L
# [10] = Pharmacokinetic study in rats; format: in vivo, Wistar rats; details: rat
# Experimental: (§3) Studies were performed by Pharmalegacy (Shanghai, China), GVK (Hyderabad, India) and Sundia, (Shanghai, China), with local ethics approval. Wistar rats were administered PXS‐5153A orally at 10 mg/kg or intravenously at 5 mg/kg, while C57/BL6 mice received PXS‐5153A orally or intravenously at 5 mg/kg. Plasma was analysed for PXS‐5153A by high‐performance liquid chromatography‐mass spectrometry/mass spectrometry (LCMS/MS).
# [11] = Pharmacokinetic study in mice; format: in vivo, C57/BL6 mice; details: mouse
# Experimental: as §3
# T1 sequence (Q96JB6 25-756): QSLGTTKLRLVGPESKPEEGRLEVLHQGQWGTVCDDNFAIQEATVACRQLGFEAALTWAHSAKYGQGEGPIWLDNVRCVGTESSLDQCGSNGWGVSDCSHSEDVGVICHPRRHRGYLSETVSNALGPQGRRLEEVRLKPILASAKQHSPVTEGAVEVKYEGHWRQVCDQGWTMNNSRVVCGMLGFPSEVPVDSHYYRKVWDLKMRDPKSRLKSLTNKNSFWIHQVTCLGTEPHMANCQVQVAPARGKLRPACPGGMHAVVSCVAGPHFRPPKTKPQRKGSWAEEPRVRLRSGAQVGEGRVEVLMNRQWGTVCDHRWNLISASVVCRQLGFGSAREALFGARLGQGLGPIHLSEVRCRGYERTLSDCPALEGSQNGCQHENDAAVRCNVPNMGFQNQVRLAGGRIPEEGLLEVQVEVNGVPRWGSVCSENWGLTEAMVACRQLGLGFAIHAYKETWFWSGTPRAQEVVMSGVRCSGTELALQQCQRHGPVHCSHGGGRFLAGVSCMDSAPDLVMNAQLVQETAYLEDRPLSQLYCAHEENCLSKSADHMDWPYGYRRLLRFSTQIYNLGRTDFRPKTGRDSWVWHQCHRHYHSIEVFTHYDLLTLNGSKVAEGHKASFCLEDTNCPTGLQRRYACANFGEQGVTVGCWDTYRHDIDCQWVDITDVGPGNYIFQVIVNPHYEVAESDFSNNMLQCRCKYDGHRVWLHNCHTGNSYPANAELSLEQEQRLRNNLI
# Sequence of Transporter, Norepinephrine (NET) (P23975 whole entry): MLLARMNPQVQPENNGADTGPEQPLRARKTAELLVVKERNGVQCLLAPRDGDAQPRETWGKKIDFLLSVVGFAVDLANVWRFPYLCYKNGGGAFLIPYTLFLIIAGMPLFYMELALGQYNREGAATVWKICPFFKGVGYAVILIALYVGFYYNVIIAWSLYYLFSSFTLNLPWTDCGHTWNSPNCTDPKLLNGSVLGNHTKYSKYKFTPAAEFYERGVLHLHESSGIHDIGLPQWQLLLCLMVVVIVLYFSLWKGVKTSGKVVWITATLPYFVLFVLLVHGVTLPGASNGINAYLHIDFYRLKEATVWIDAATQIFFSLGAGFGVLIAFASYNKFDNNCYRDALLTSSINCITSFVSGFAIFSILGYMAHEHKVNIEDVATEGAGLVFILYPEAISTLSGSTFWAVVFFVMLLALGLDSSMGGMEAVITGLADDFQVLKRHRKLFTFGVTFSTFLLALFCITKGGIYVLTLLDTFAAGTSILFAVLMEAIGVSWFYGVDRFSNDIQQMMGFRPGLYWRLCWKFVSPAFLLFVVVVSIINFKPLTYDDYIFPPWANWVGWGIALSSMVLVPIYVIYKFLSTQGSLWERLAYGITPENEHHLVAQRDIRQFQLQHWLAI
# Sequence of Opiate μ (OP3, MOP) (P35372 whole entry): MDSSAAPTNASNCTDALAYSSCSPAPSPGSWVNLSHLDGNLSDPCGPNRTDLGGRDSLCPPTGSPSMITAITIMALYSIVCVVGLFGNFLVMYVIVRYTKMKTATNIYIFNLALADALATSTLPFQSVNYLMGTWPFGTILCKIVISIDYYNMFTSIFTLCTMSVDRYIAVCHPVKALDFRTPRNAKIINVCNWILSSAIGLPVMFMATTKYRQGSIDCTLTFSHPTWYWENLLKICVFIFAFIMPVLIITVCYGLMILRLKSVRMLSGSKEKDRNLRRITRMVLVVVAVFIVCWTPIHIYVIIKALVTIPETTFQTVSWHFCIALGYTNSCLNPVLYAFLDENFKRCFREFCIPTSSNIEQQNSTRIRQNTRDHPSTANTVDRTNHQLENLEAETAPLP
# Sequence of Histamine H1 (P35367 whole entry): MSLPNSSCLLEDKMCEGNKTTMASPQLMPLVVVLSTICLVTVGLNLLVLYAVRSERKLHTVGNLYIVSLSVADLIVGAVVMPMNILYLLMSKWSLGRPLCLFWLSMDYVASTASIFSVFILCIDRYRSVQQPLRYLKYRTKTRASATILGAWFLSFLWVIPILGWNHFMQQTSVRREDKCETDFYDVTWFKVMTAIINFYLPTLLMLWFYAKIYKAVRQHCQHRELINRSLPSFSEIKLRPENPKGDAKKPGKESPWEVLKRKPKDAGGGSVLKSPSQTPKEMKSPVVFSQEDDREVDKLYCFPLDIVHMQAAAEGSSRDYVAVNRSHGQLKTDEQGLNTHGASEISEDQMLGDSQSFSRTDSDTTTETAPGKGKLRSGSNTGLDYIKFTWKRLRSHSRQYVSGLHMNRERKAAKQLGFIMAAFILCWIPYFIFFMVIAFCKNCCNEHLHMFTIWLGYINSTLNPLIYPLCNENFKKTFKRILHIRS
# Sequence of Nicotinic Acetylcholine α1, Bungarotoxin (Q07001 22-517): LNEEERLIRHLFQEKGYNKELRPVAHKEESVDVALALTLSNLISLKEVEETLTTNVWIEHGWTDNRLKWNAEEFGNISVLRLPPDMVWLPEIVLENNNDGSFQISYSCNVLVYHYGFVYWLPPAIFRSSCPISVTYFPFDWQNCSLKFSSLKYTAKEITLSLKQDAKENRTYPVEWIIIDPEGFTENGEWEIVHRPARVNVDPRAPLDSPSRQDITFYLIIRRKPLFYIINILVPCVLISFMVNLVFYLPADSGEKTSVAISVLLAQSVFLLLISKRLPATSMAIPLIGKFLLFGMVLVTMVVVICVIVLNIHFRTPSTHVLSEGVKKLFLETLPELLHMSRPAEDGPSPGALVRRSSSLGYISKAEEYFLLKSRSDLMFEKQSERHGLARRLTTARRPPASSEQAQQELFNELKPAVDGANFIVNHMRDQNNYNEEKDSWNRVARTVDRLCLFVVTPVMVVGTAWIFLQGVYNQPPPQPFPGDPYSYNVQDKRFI
# Sequence of Nicotinic Acetylcholine α1, Bungarotoxin (P02708 21-457): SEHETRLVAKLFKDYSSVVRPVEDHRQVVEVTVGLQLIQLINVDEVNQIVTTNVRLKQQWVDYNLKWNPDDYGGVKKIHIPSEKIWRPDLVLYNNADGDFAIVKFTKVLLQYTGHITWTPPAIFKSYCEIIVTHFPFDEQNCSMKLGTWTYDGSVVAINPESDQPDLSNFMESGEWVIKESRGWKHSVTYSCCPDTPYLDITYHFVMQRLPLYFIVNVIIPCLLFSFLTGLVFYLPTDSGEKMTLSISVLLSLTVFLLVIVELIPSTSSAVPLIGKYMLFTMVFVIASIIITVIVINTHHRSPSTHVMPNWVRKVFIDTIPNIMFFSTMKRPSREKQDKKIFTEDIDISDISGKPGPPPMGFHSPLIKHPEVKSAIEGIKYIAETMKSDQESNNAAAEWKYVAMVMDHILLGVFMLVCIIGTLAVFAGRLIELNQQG
# Sequence of Nicotinic Acetylcholine α1, Bungarotoxin (P07510 23-517): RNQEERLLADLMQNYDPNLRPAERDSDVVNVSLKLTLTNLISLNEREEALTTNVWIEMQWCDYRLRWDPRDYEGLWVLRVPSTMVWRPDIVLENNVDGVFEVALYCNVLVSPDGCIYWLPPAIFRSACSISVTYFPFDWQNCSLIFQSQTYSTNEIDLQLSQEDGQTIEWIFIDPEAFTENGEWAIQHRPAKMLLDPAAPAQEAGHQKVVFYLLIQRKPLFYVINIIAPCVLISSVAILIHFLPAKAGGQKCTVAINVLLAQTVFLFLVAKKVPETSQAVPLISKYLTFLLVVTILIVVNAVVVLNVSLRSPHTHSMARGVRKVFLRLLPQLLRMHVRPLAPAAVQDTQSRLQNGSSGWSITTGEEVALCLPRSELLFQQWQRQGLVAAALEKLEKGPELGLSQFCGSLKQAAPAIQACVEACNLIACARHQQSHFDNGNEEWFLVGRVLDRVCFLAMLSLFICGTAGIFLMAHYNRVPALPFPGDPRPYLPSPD
# Sequence of Nicotinic Acetylcholine α1, Bungarotoxin (P11230 24-501, further chain): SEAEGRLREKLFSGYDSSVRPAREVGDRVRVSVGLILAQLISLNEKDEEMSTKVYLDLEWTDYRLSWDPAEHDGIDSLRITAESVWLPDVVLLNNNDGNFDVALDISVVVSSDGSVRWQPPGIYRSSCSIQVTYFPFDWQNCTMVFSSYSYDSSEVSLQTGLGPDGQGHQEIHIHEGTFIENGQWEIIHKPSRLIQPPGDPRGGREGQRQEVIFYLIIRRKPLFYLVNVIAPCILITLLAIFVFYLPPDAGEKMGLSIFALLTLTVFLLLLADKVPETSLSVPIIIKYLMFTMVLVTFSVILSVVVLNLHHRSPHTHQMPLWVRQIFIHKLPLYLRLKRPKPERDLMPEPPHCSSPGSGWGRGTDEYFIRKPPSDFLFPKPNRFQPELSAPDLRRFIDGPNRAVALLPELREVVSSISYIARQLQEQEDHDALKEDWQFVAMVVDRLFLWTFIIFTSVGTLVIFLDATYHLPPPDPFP
# Sequence of Sigma σ1 (Q99720 whole entry): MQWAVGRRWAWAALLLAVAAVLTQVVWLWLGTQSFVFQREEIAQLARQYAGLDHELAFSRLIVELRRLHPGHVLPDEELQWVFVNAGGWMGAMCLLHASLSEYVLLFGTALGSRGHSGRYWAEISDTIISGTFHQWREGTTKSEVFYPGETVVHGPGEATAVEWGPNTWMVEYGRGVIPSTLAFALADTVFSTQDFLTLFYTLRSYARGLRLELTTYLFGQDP
smiles,measurement,setting,value
Cc1c(-c2cccc(S(=O)(=O)N(C)C)c2)c2ncccc2n1C/C(F)=C/CN.Cl.Cl [PXS-5153A],IC50,[1],104 nM
same,pIC50 ± SD,[1],7 ± 0.1
same,IC50,[2],< 40 nM
same,substrate competition,[3],in a competitive manner
same,% inhibition,[4],23%
same,% inhibition,[5],16%
same,% inhibition,[6],2%
same,% inhibition,[7],11%
same,% inhibition,[8],8%
same,% inhibition,[9],15%
same,"Apparent half-life, t1/2",[10]; intravenous 5 mg/kg,78 min
same,Clearance CL,[10]; intravenous 5 mg/kg,180 mL/min/kg
same,Time of maximal concentration Tmax,[10]; intravenous 5 mg/kg,1.8 min
same,Apparent concentration at curve maximum Cmax,[10]; oral 10 mg/kg,33 ng/mL
same,Clearance CL,[10]; oral 10 mg/kg,2029 mL/min/kg
same,Time of maximal concentration Tmax,[10]; oral 10 mg/kg,37.5 min
same,Bioavailability,[10]; oral 10 mg/kg (i.v. 5 mg/kg),10%
same,"Apparent half-life, t1/2",[11]; intravenous 5 mg/kg,96 min
same,Clearance CL,[11]; intravenous 5 mg/kg,673 mL/min/kg
same,Time of maximal concentration Tmax,[11]; intravenous 5 mg/kg,4.8 min
same,Apparent concentration at curve maximum Cmax,[11]; oral 5 mg/kg,113 ng/mL
same,Clearance CL,[11]; oral 5 mg/kg,593 mL/min/kg
same,Time of maximal concentration Tmax,[11]; oral 5 mg/kg,60 min
same,Bioavailability,[11]; oral 5 mg/kg (i.v. 5 mg/kg),40%
